Molecules are shown by their SMILES.

For one assay, the target named is PDGF-β (Homo sapiens, UniProt P01127). Put plainly: PDGF-β/heparin competition assay by SPR (Biacore). Type of assay: binding. Particulars: 10 nM PDGF-β, biotinylated heparin, Sensorchip C1. Here is the method:
(§1) Heparin or low molecular weight heparin (6 kDa) from SIGMA were biotinylated at the reducing end and immobilized on a Biacore sensorchip. Different concentrations of the compounds of the present invention were co-incubated at a fixed concentration of targets: FGF-2, PDGF-β, VEGF-A or SDF-1α for 30 minutes. The mixture was then injected onto the streptavidin control (control reference) and HP surfaces. Only free growth factor (GF) or chemokine, i.e. the target molecules not bound to compounds of the present invention, were trapped on the heparin surface. From the binding of free targets on heparin, the percentages of inhibition were calculated and then reported in function of compound concentrations. The plot was fitted with a four-parameter model and IC50 was calculated. The 0% inhibition value was obtained for the injection of the studied target in running-buffer, and the 100% inhibition value was obtained for the injection of the studied target co-incubated with 10 μM of low molecular weight heparin 6 kDa. A PDGF-β/heparin competition assay using the Biacore technology was performed using the following conditions: 10 nM PDGF-β, biotinylated heparin, Reference Streptavidin, Sensorchip C1, HBS-P, Regeneration NaCl 2M. IC50 values of compounds of the present invention were determined using the Biacore technology for the growth factor and chemokine/heparin competition assays that contained the following proteins: VEGF-A, SDF-1α, FGF-2 and PDGF-β.

A further assay deals with T1, VEGF-A (Homo sapiens, UniProt P15692).
T1 sequence (P15692 27-191 isoform P15692-4): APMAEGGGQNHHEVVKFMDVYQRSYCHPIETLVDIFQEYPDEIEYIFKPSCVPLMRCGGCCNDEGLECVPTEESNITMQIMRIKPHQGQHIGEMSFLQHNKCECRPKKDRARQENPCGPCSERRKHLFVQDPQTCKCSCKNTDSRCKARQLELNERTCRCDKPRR
Nature of the assay: VEGF-A/heparin competition assay by SPR (Biacore). Type of assay: binding. Particulars: 10 nM VEGF-A, biotinylated low molecular weight heparin, Sensorchip SA. Here is the method: as §1, with “kDa.” for “kDa. A PDGF-β/heparin competition assay using the Biacore technology was performed using the following conditions: 10 nM PDGF-β, biotinylated heparin, Reference Streptavidin, Sensorchip C1, HBS-P, Regeneration NaCl 2M. IC50 values of compounds of the present invention were determined using the Biacore technology for the growth factor and chemokine/heparin competition assays that contained the following proteins: VEGF-A, SDF-1α, FGF-2 and PDGF-β.”
A VEGF-A/heparin competition assay using the Biacore technology was performed using the following conditions: 10 nM VEGF-A, biotinylated low molecular weight heparin, Reference Streptavidin, Sensorchip SA, HBS-P, Regeneration NaCl 2M.
IC50 values of compounds of the present invention were determined using the Biacore technology for the growth factor and chemokine/heparin competition assays that contained the following proteins: VEGF-A, SDF-1α, FGF-2 and PDGF-β.
A general note: SPR reads the build-up and loss of mass on a sensor chip optically.

The test system of assay [1] is PDGF-β-induced NHDF proliferation. Put plainly: PDGF-β-induced NHDF proliferation assay. Type of assay: cell-based, human. The following applies: PDGF-β 10 ng/ml; FIGS. 8-12. Here is the method:
The activities of the compounds of the present invention were tested using a proliferation assay, such as the one described by N. Ali et al., J Pharmacol Sci, 2005, 98, 130-141. A defined number of cells is seeded in each well of a culture plate. In order to stimulate cell proliferation, a growth factor is added in some wells, while others remain unstimulated (basal proliferation conditions). To monitor the effects of substances of interest (oligosaccharides compounds according to the present invention) on basal and growth factor-induced cell proliferation, substances of interest are added at different concentrations (i.e. 0.1, 0.3, 1, 3, 10 or 30 μM) in presence or absence of the growth factor, respectively. After an incubation period of 24 hours, the total number of cells is estimated in all samples (generally through an indirect method, such as incorporation of radioactivity into the newly synthesised DNA or colorimetric assays based on cellular enzyme activities or metabolite production). The total number of cells for the control sample in which no substance of interest nor growth factor have been added is set to 1. The total number of cells in all the other samples is compared to this value in order to obtain the relative proliferation index.
Typically, cells are seeded in 48 or 96-well plates. After 2 h (i.e. the time required for cells to adhere to the support) the normal culture media is replaced by a minimal essential culture media in which cells are grown for 24 h (starvation period). This step is used to reduce cell growth (cell metabolism is slowed down in order to better visualise the growth factor stimulation effect) before adding an angiogenic protein, such as a growth factor i.e. FGF-2 or PDGF-β. No growth factor is added in basal proliferation conditions (independently of the presence or absence of the oligosaccharide of the present invention). To evaluate the inhibition of the oligosaccharide compounds according to the present invention on cell proliferation, the angiogenic protein (growth factor) is added at a fixed concentration (from 5 ng/ml to 10 ng/ml) with increasing amounts of oligosaccharide compounds (0.1, 0.3, 1, 3, 10 or 30 μM), which allows the IC50 value to be estimated (i.e. the oligosaccharide concentration at which the stimulatory effect of the growth factor is inhibited by 50%).
Following addition of the angiogenic protein (growth factor) over a 24 h stimulation period, a commercial reagent containing a substrate for a cellular enzyme is added and incubated for couple of hours. The degradation of the substrate by the enzyme leads to the production of a coloured product which is titrated by absorbance measurement. […]

PDGF-β, sequence (P01127 82-190 limits assumed): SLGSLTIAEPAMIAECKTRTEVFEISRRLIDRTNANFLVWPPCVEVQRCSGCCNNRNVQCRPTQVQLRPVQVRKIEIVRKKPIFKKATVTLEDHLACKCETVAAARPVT

The term IC50 denotes the point on the concentration scale where inhibition reaches its midpoint. For the compound `C#CCCCOC1OC(COS(=O)(=O)[O-])C(OC2OC(C(=O)[O-])C(OC3OC(COS(=O)(=O)[O-])C(OC4OC(C(=O)[O-])C(OC5OC(COS(=O)(=O)[O-])C(OC6OC(C(=O)[O-])C(OC7OC(COS(=O)(=O)[O-])C(OC8OC(C(=O)[O-])C(OCc9ccccc9)C(OCc9ccccc9)C8OS(=O)(=O)[O-])C(OCc8ccccc8)C7NS(=O)(=O)[O-])C(OCc7ccccc7)C6OS(=O)(=O)[O-])C(OCc6ccccc6)C5NS(=O)(=O)[O-])C(OCc5ccccc5)C4OS(=O)(=O)[O-])C(OCc4ccccc4)C3NS(=O)(=O)[O-])C(OCc3ccccc3)C2OS(=O)(=O)[O-])C(OCc2ccccc2)C1NS(=O)(=O)[O-].[Na+].[Na+].[Na+].[Na+].[Na+].[Na+].[Na+].[Na+].[Na+].[Na+].[Na+].[Na+].[Na+].[Na+].[Na+].[Na+]` (stereo not drawn) [Compound 240], the values for the IC50 at PDGF-β and on VEGF-A were 10.9 nM and 4.8 nM, respectively. In assay [1], the “inhibition of PDGF-β-induced NHDF proliferation” value is listed as “inhibit PDGF-β proliferation (starting in the micromolar range)”.

Turning to `C#CCCCOC1OC(COS(=O)(=O)[O-])C(OC2OC(C(=O)[O-])C(OC3OC(COS(=O)(=O)[O-])C(OC4OC(C(=O)[O-])C(OC5OC(COS(=O)(=O)[O-])C(OC6OC(C(=O)[O-])C(OCc7ccccc7)C(OCc7ccccc7)C6OS(=O)(=O)[O-])C(OCc6ccccc6)C5NS(=O)(=O)[O-])C(OCc5ccccc5)C4OS(=O)(=O)[O-])C(OCc4ccccc4)C3NS(=O)(=O)[O-])C(OCc3ccccc3)C2OS(=O)(=O)[O-])C(OCc2ccccc2)C1NS(=O)(=O)[O-].[Na+].[Na+].[Na+].[Na+].[Na+].[Na+].[Na+].[Na+].[Na+].[Na+].[Na+].[Na+]` (stereo not drawn) [Compound 239], the 50% inhibitory concentration (IC50) was determined as 85 nM on PDGF-β and 5.2 nM at VEGF-A. Also, the “inhibition of PDGF-β-induced NHDF proliferation” value in assay [1] is reported as “inhibit PDGF-β proliferation (starting in the micromolar range)”.
